Biological target: T1, HCV NS3 helicase NS3h_1b(con1) (Hepatitis C virus genotype 1b, UniProt Q9WMX2)
T1 construct: truncated C-terminally His-tagged NS3 proteins lacking the N-terminal protease, called NS3h; His-tag (C); made in house
Assay: MBHA screen of NCI mechanistic set library at 20 μM (percent inhibition, compound interference)
Assay type: biochemical
Conditions: compounds at 20 μM; for Inh. (%) (Inhibition): calculated from Equation 1
Experimental: All molecular beacon-based helicase assays (MBHAs) were performed according to known methods (Belon & Frick (2008) supra; Belon & Frick (2009) supra). […] In each flat, black 384-well plate, 56 compounds were tested, in triplicate, along with three negative controls (DMSO only), three positive controls (500 nM dT20), and two wells with no enzyme. Fluorescence was read before ATP (F0) addition and 30 minutes after ATP was added to 1 mM (F30) using a Tecan Infinite M200 fluorescence microplate reader with excitation and emission wavelengths set to 643 and 670 nm, respectively. Percent inhibition was calculated with equation 1, and compound interference in the MBHA was calculated with equation 2.
In Equations 1 and 2, Fc0 is the fluorescence of the reactions containing the test compound before adding ATP, Fc30 is the fluorescence of the test compound reaction 30 minutes after adding ATP. F(−)0 is the average of three DMSO-only negative control reactions before adding ATP and F(−)30 is the average of three DMSO-only reactions 30 minutes after adding ATP.
To identify HCV helicase inhibitors, the MBHA was first used to screen the National Cancer Institute Developmental Therapeutics Program's mechanistic set library. In total, 827 compounds (at 20 μM) were screened using a MBHA with a DNA substrate (Table 1). Compounds were ranked by their ability to inhibit HCV helicase-catalyzed DNA unwinding as calculated from Equation 1.
Compound interference in the MBHA was evaluated by comparing the fluorescence of reactions containing each compound to the fluorescence of DMSO-only negative controls before ATP was added.

[1] = assay interference calculated with Equation 2 (fluorescence vs DMSO-only controls before ATP)
[2] = MBHA with DNA substrate, assay interference calculated with Equation 2

T1 sequence (Q9WMX2 1192-1657): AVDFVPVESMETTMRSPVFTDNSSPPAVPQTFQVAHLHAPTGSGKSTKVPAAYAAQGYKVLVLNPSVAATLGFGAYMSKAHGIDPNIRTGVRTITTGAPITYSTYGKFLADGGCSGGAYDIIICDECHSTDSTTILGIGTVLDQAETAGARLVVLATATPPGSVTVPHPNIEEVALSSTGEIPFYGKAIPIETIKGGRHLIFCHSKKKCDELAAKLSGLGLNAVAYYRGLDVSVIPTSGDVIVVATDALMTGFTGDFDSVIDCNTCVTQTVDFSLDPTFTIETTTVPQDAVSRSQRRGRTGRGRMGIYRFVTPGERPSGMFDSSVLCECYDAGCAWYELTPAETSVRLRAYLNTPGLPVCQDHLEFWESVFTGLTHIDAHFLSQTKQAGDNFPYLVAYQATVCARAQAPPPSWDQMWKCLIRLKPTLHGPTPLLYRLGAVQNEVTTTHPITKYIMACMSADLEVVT

Compound	Inh. (%) (Inhibition) (MBHA with a DNA substrate)	Int.* (Ratio) (Interference) [1]	Int.* (Ratio) (Interference) [2]	Inh. (%) (Inhibition) (MBHA with DNA substrate)
COc1cc2c(cc1O)N=CC1CCC(O)N1C2=O (centres unmarked) [Compound 285223]	−26.2%	1.01 Ratio	–	–
O=C1N[C@H]2[C@H](O)[C@H](O)[C@@H](O)[C@H](O)[C@@H]2c2cc3c(c(O)c21)OCO3 [Compound 349156]	–	–	0.95 Ratio	−10.2%
OCCNCCN1CCN(CCCN2c3ccccc3Sc3ccc(C(F)(F)F)cc32)CC1 [Compound 169676]	–	–	0.87 Ratio	18.3%
CCS(=O)(=O)O.CN(C)C(=O)c1cccc(COc2ccc(N3C(N)=NC(N)=NC3(C)C)cc2Cl)c1 [Compound 139105]	7.0%	0.98 Ratio	–	–
N#Cc1ccccc1NC(=O)C(=O)C(C(=O)c1ccccc1F)C1OC(=O)c2ccccc21 (centres unmarked) [Compound 640974]	−33.1%	0.87 Ratio	–	–
CCN(CC)C(=S)S [Compound 4857]	–	–	1.07 Ratio	−8.0%
CCC12C[N+]3([O-])CCc4c([nH]c5ccccc45)C(C(=O)OC)(c4cc5c(cc4OC)N(C)C4C(O)(C(=O)OC)C(OC(C)=O)C6(CC)C=CCN7CCC54C76)CC(C3)C1O2 (centres unmarked) [Compound 304421]	–	–	0.97 Ratio	25.6%
O=C1Nc2c(Cl)cc(Cl)cc2C1=NN=Cc1ccco1 [Compound 329279]	–	–	0.94 Ratio	1.9%
CO[C@H]1[C@@H](O)[C@@H](C)O[C@H](O[C@H]2[C@H](Oc3cccc4c(O)c5c(=O)oc6ccc(C)c7c(=O)oc(c34)c5c67)O[C@H](C)[C@H](O)[C@@H]2O)[C@@H]1O [Compound 5159]	–	–	1.03 Ratio	38.6%
Cc1nc(N)nc(N)c1-c1ccc(Cl)c(Cl)c1 [Compound 7364]	–	–	0.86 Ratio	20.2%
CC[n+]1c(-c2ccccc2)c2cc(N)ccc2c2ccc(N)cc21.[Br-] [Compound 268986]	–	–	0.81 Ratio	36.0%
CN(CO)c1nc(N(C)CO)nc(N(C)CO)n1 [Compound 283162]	–	–	1.08 Ratio	−12.0%
CN(C)C[C@H]1CC[C@@H](CN(C)C)C1=O.Cl.Cl [Compound 640391]	10.6%	1.09 Ratio	–	–
CCC(=O)OC1CCn2c1nc1c2C(=O)C(C)=C(N2CC2)C1=O (centres unmarked) [Compound 651079]	–	–	1.05 Ratio	−16.7%
Cc1ccc2[nH]c(O)c(N=Nc3ccccc3[N+](=O)[O-])c2c1 [Compound 117915]	–	–	1.00 Ratio	1.4%
COc1ccc(/C=C2\CCCc3ccccc3C2=O)cc1 [Compound 687667]	−29.0%	1.00 Ratio	–	–
CC1=C/C(=N\OCC(=O)O)CC(c2ccc(C(C)C)cc2)C1 (centres unmarked) [Compound 680506]	10.2%	0.92 Ratio	–	–
CC(C)C[C@H]1C(=O)N2CCC[C@H]2[C@]2(O)O[C@](NC(=O)[C@@H]3C=C4c5cccc6[nH]c(Br)c(c56)C[C@H]4N(C)C3)(C(C)C)C(=O)N12.CS(=O)(=O)O [Compound 169774]	–	–	0.92 Ratio	−15.6%
O=[N+]([O-])c1cccc2c(N=Nc3ccc4ccccc4c3O)c(O)cc(S(=O)(=O)[O-])c12.[Na+] [Compound 85561]	–	–	0.90 Ratio	68.8%
[Cl-].[Cl-].[Cl-].[Rh+3].c1ccc(-c2ccnc3c2ccc2c(-c4ccccc4)ccnc23)cc1.c1ccc(-c2ccnc3c2ccc2c(-c4ccccc4)ccnc23)cc1.c1ccc(-c2ccnc3c2ccc2c(-c4ccccc4)ccnc23)cc1 [Compound 619179]	–	–	0.44 Ratio	23.8%
NC(=S)N/N=C/c1ccc(OC(=O)COc2ccccc2Cl)cn1 [Compound 185056]	6.8%	0.90 Ratio	–	–
N#CCCN(CCC#N)c1ccc(/C=C2/N=C(c3cc([N+](=O)[O-])ccc3Cl)OC2=O)cc1 [Compound 637916]	–	–	0.97 Ratio	1.1%
Cc1nc(Nc2ccc(Cl)c(Cl)c2)sc1C(/C=C/c1ccc2c(c1)OCO2)=N/Nc1ccc([N+](=O)[O-])cc1[N+](=O)[O-] [Compound 640335]	−24.2%	0.91 Ratio	–	–

Compound	Inh. (%) (Inhibition) (MBHA with a DNA substrate)	Int.* (Ratio) (Interference) [1]	Int.* (Ratio) (Interference) [2]	Inh. (%) (Inhibition) (MBHA with DNA substrate)
CC(=O)NCCCCCCNC(C)=O [Compound 95580]	−3.8%	0.93 Ratio	–	–
O=C1C=C(NCCc2ccccc2)c2ccccc2C1=O [Compound 637731]	−5.3%	1.07 Ratio	–	–
N[C@H](C(=O)O)[C@H]1ON=C(Cl)[C@H]1O [Compound 176324]	−6.8%	1.02 Ratio	–	–
Cl.O=C1C=CC(=O)c2c(O)c(N3CCN(CCOCCO)CC3)c(Br)c(O)c21 [Compound 659999]	–	–	0.44 Ratio	6.1%
COc1ccc(/C=C\c2cc(OC)c(OC)c(OC)c2)cc1OP(=O)(O)O.N [Compound 643001]	−19.4%	0.96 Ratio	–	–
NC(=Nc1nc(-c2ccccn2)cc2ccccc12)c1ccccn1 [Compound 637578]	7.9%	0.97 Ratio	–	–
COc1cc(C(C)c2cc3c(cc2OCCO)OCO3)cc(OC)c1OC (centres unmarked) [Compound 352876]	−19.4%	1.08 Ratio	–	–
S=C=NCc1ccccc1 [Compound 118976]	–	–	0.96 Ratio	13.9%
C=C1C(=O)OC2C1CC1OC2C(C)CCC/C(C)=C\CCC1(C)O (centres unmarked) [Compound 282752]	−5.5%	1.00 Ratio	–	–
COc1cc(OC)c2c(C)cc(=O)oc2c1 [Compound 688795]	9.3%	1.02 Ratio	–	–
COc1cc(-c2cc(=O)c3c(OC)c(OC)c(OC)c(OC)c3o2)cc(OC)c1OC [Compound 67580]	−27.4%	1.12 Ratio	–	–
CC1Oc2cc3c(-c4c(O)cc(O)c5c(O)c6c(cc45)OC(C)C(C)C6=O)c(O)cc(O)c3c(O)c2C(=O)C1C (centres unmarked) [Compound 345647]	–	–	0.80 Ratio	−17.6%
CCN1/C(=C\C(C)=C\c2sc3ccccc3[n+]2CC)Sc2ccccc21.[I-] [Compound 96932]	–	–	0.59 Ratio	38.8%
Cc1[nH]c(=O)[nH]c(=O)c1/C=C/C(=O)NC(CO)CC(C)C (centres unmarked) [Compound 224117]	–	–	1.01 Ratio	−2.8%
CC[C@]1(O)C[C@@H]2CN(CCc3c([nH]c4ccccc34)[C@@](C(=O)OC)(c3cc4c(cc3OC)N(C)[C@H]3[C@@](O)(C(=O)OC)[C@H](OC(C)=O)[C@]5(CC)C=CCN6CC[C@]43[C@@H]65)C2)C1.O=S(=O)(O)O [Compound 49842]	9.9%	0.98 Ratio	–	–
CC(=O)/C(=C\c1cccc([N+](=O)[O-])c1)C(=O)Nc1ccccc1C [Compound 634658]	–	–	0.85 Ratio	15.7%
C1CN(c2nnc(N3CCC3)nn2)C1 [Compound 625748]	–	–	0.94 Ratio	−11.6%
Nc1ccc2c(c1)CN1C(=O)c3ccccc3C1=N2 [Compound 320846]	10.7%	0.90 Ratio	–	–
CC1(C)C(O)OC(O)C1(C)C (centres unmarked) [Compound 614928]	–	–	0.99 Ratio	19.1%
O=C(CCCN1CCC(C(O)c2ccc(F)cc2)CC1)c1ccc(F)cc1 (centres unmarked) [Compound 343513]	–	–	0.91 Ratio	−8.7%
S=C(Nc1ccccc1)N(/N=C/C=C/c1ccccc1)c1nnc(-c2ccccc2)c(-c2ccccc2)n1 [Compound 640637]	−3.0%	0.86 Ratio	–	–
CN(C)CC1CCC/C(=C\c2ccc(OC(=O)/C=C/c3ccccc3)cc2)C1=O.Cl (centres unmarked) [Compound 697443]	11.6%	1.01 Ratio	–	–
COc1cc2c3c(c1OC)-c1cc4c(cc1CC3(C#N)N(C(=O)c1ccccc1)CC2)OCO4 (centres unmarked) [Compound 627666]	−3.6%	0.87 Ratio	–	–
